What was measured:
Format in all cases: binding
C3AR1 = target: T1, C3AR1 (Homo sapiens, UniProt Q16581); assay: NanoBRET screen HiBiT-C3AR1 in HEK293
T1 construct: purchased Promega (in-house HiBiT-GPCR construct library, NanoBRET)
T1 sequence (Q16581 1-482): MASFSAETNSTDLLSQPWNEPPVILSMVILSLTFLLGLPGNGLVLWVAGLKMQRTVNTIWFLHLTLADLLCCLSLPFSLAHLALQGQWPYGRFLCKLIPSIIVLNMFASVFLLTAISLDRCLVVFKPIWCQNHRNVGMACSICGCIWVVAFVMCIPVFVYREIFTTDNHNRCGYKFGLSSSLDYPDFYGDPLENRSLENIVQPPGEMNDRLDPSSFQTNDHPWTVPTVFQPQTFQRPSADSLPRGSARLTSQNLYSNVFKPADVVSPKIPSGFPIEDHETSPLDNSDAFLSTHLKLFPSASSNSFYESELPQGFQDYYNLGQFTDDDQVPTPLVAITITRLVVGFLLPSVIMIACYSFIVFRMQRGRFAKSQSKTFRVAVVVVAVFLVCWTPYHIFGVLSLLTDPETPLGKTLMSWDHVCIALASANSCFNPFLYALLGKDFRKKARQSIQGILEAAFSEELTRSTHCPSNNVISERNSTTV
Procedure: (§1) Each tracer candidate was screened across the entire library of HiBiT-GPCR constructs using NanoBRET as the detection modality. As depicted in Figure 4A, the specificity of interactions was evaluated through decrease in BRET due to competitive displacement of a bound tracer by excess parental compound. Each tracer was analyzed for binding to each HiBiT-GPCR fusion in the absence and in the presence of competing parental compound. Briefly, HEK293 cells were transfected with HiBiT-GPCR constructs diluted into promoterless DNA to reduce expression and maximize translocation to the cell surface. Each tracer candidate was then screened at concentrations of 1 μM and 0.1 μM across cells expressing these fusions. Cells were treated for 1.5 h with tracer either alone or in the presence of 20 μM competing parental compound (i.e., control). BRET was measured upon addition of purified LgBiT and subsequent complementation with HiBiT genetically fused to a GPCR. The specificity of interactions was assessed through a decrease in BRET signal due to competitive displacement of the bound tracer. To further gauge the robustness of these interactions, the fold response over the control (i.e., BRETtracer/BRETcontrol) was calculated. We chose a 1.5-fold response, which translates to ≥7-fold signal over noise as the minimal threshold required to score an interaction as positive. […]. Below we highlight the screening results obtained for our exemplary fluorescent tracers based on Clozapine, Amitriptyline and AZD1283.
(§2) HiBiT-GPCR DNA constructs were diluted in 10 mM Tris pH 8 to a final concentration of 0.01 μg/μL, arrayed in 96-well plates and stored at −20 °C. For transfection, HEK293 cells were suspended in Opti-MEM (without phenol red) supplemented with 2% fetal bovine serum (Seradigm) and 100 units/mL penicillin–streptomycin (Gibco) at a final concentration of 220,000 cells/mL and dispensed into white 96-well plates at 90 μL/well. Subsequent transfections and screens were carried using an Agilent Bravo Automated Liquid Handling Platform. First, the 96-well HiBiT DNA arrays were diluted 25-fold in Opti-MEM (without serum or phenol red) to a final concentration of 0.0004 μg/μL and 20 μL of the diluted DNAs were transferred into new 96-well plates. Next, promoterless carrier DNA (1 μg/μL) was diluted 25-fold (0.04 μg/μL) and then dispensed into the diluted arrays at 20 μL/well. Following brief mixing, Viafect transfection reagent (Promega) diluted 16-fold into Opti-MEM was dispensed into the plates at 40 μL/well. After mixing by pipetting, plates were incubated for 10 min on the pipetting station deck. The DNA-transfection reagent complexes were then added to plates containing cells. To facilitate the screen, 10 μL of DNA-transfection reagent complexes were added in duplicates to the top 4 and bottom 4 rows, resulting in two identical 48-well arrays per plate. Plates with transfected cells were incubated for 18–20 h at 37 °C/5% CO2. A screen of each tracer across the entire library using two different concentrations requires duplicate plates of transfected cells. Depending on the number of tracers being screened, transfections can be scaled up using the same ratios. The next day, for each tracer, four 20× screening solutions in tracer dilution buffer (Promega) were prepared: two duplicates at final concentration of 20 μM and two duplicates at a final concentration of 2 μM. A competing unmodified compound was added to one of each duplicate at a final concentration of 400 μM. The four resulting solutions were diluted 4-fold in Opti-MEM without serum or phenol red to generate 5× solutions (5 µM and 0.5 µM tracer +/− 100 μM competing compound). To screen the library, a BioTek MultiFlo FX liquid dispenser was used to dispense 22.5 µL of tracer solution to the top 4 rows and 22.5 µL tracer + competing compound solution to the 4 bottom rows. Plates were briefly mixed on an orbital shaker and incubated for 1.5 h at room temperature. […]

GRM3 = target: T2, GRM3 (Homo sapiens, UniProt Q14832); assay: NanoBRET screen HiBiT-GRM3 in HEK293; details: GRM3
T2 construct: purchased Promega (in-house HiBiT-GPCR construct library, NanoBRET)
Procedure: as §1, §2

HCRTR2 = target: T3, HCRTR2 (Homo sapiens, UniProt O43614); assay: NanoBRET screen HiBiT-HCRTR2 in HEK293
T3 construct: purchased Promega (in-house HiBiT-GPCR construct library, NanoBRET)
T3 sequence (O43614 1-444): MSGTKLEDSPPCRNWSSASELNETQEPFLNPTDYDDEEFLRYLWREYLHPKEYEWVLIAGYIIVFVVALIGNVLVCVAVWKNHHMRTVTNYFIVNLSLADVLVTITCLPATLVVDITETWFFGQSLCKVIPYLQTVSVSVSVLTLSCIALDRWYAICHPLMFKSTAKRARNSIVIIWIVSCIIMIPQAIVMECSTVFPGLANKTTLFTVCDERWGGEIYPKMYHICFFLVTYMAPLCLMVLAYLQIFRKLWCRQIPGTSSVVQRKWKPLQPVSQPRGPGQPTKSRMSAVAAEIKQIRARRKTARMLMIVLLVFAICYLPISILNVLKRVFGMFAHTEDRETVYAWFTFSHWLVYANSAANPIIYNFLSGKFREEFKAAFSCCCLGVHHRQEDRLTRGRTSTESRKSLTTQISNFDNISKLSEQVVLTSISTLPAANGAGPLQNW
Procedure: as §1, §2

[1] = tracer at 0.1μM, listed as amitriptyline-b-2-NB590

T2 sequence (Q14832 23-879): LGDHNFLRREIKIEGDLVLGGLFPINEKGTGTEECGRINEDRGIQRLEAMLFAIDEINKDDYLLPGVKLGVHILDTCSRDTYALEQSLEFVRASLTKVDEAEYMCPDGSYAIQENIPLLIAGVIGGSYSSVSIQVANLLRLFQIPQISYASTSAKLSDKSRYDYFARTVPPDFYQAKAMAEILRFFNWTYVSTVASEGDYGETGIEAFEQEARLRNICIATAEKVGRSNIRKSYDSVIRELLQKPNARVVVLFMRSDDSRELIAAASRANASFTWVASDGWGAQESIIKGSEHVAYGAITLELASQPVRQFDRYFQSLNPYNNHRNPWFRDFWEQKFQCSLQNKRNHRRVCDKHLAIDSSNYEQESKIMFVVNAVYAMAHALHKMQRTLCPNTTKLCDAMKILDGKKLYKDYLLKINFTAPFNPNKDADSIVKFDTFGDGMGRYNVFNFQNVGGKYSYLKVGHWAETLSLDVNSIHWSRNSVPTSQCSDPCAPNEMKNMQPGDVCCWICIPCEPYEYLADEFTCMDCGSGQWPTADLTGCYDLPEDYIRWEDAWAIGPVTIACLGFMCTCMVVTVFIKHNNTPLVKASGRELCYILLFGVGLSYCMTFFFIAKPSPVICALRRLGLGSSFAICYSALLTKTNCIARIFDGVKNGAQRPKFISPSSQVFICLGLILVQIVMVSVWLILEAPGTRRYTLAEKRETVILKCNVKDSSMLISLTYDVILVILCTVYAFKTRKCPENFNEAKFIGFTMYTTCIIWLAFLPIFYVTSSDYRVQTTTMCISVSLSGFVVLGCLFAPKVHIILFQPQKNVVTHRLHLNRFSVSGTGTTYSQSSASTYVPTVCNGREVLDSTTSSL

Row | Compound | NanoBRET Fold Response (C3AR1; C3AR1, tracer 0.1μM) | NanoBRET Fold Response (C3AR1; C3AR1, tracer 1μM) | NanoBRET Fold Response (GRM3; tracer 0.1μM) | NanoBRET Fold Response (HCRTR2; HCRTR2, tracer 0.1μM) | NanoBRET Fold Response (HCRTR2; HCRTR2, tracer 1μM) | NanoBRET Fold Response (GRM3; tracer 1μM) | NanoBRET Fold Response (C3AR1; C3AR1, 0.1μM tracer) | NanoBRET Fold Response (C3AR1; C3AR1, 1μM tracer) | NanoBRET Fold Response (GRM3; 0.1μM tracer) | NanoBRET Fold Response (HCRTR2; HCRTR2, 0.1μM tracer) | NanoBRET Fold Response (HCRTR2; HCRTR2, 1μM tracer) | NanoBRET Fold Response (C3AR1; [1]) | NanoBRET Fold Response (C3AR1; tracer at 1μM) | NanoBRET Fold Response (HCRTR2; [1]) | NanoBRET Fold Response (HCRTR2; tracer at 1μM, listed as amitriptyline-b-2-NB590)
1 | COc1ccccc1N1CCN(CCCCN2C(=O)c3ccc(CNC(=O)CCOCCOCCOCCOCCNC(=O)CCc4ccc5n4[B-](F)(F)[N+]4=C(c6ccc[nH]6)C=CC4=C5)cc3C2=O)CC1 [NAN-190-2-NB590] | 1.03 | 0.96 | 0.95 | 1.02 | 1.00 | – | – | – | – | – | – | – | – | – | –
2 | CC(C)N(CC[C@H](c1ccccc1)c1cc(CCNC(=O)c2ccc(CNC(=O)CCc3ccc4n3[B-](F)(F)[N+]3=C(c5ccc[nH]5)C=CC3=C4)cc2)ccc1O)C(C)C [Tolterodine-BZ-NB590] | 1.00 | 0.99 | 0.99 | 0.91 | 1.06 | 1.06 | – | – | – | – | – | – | – | – | –
3 | O=C(CCc1ccc2n1[B-](F)(F)[N+]1=C(c3ccc[nH]3)C=CC1=C2)NCCOCCOCCNC(=O)OCCOCCN1CCN(C2=Nc3ccccc3Sc3ccccc32)CC1 [Quetiapine-a-2-NB590] | 0.86 | 1.02 | 1.08 | 1.01 | 0.84 | 1.09 | – | – | – | – | – | – | – | – | –
4 | CN1CCN(C2=Nc3cc(Cl)ccc3Nc3ccc(CNC(=O)CCOCCOCCOCCOCCNC(=O)CCc4ccc5n4[B-](F)(F)[N+]4=C(c6ccc[nH]6)C=CC4=C5)cc32)CC1 [Clozapine-b-2-NB590] | – | – | – | – | – | – | 0.99 | 1.02 | 0.99 | 0.99 | 0.98 | – | – | – | –
5 | CC(C)N(CC[C@H](c1ccccc1)c1cc(CCNC(=O)CCOCCOCCOCCOCCNC(=O)CCc2ccc3n2[B-](F)(F)[N+]2=C(c4ccc[nH]4)C=CC2=C3)ccc1O)C(C)C [Tolterodine-2-NB590] | 1.04 | 1.01 | 0.82 | 1.04 | 1.00 | 1.09 | – | – | – | – | – | – | – | – | –
6 | Cc1cc2c(s1)Nc1ccccc1N=C2N1CCN(CCCNC(=O)CCOCCOCCOCCOCCNC(=O)CCc2ccc3n2[B-](F)(F)[N+]2=C(c4ccc[nH]4)C=CC2=C3)CC1 [Olanzapine-a-2-NB590] | 1.01 | 1.01 | 1.02 | 0.95 | 0.97 | 1.02 | – | – | – | – | – | – | – | – | –
7 | N#CN=C(NCCCOc1cccc(CN2CCCCC2)c1)NCCNC(=O)CCOCCOCCOCCOCCNC(=O)CCc1ccc2n1[B-](F)(F)[N+]1=C(c3ccc[nH]3)C=CC1=C2 [Aminopotentidine-2-NB590] | 0.99 | 1.04 | 1.01 | 1.01 | 0.97 | 1.03 | – | – | – | – | – | – | – | – | –
8 | Cc1nc2n(c(=O)c1CCN1CCC(c3noc4cc(F)ccc34)CC1)CCCC2OC(=O)NCCOCCOCCOCCOCCNC(=O)CCc1ccc2n1[B-](F)(F)[N+]1=C(c3ccc[nH]3)C=CC1=C2 (stereo not shown) [Risperidone-2-NB590] | 0.93 | 0.98 | 1.07 | 0.98 | 0.96 | 1.07 | – | – | – | – | – | – | – | – | –
9 | CN(C)CCC=C1c2ccccc2CCc2ccc(C(=O)NCCNC(=O)CCOCCOCCOCCOCCNC(=O)CCc3ccc4n3[B-](F)(F)[N+]3=C(c5ccc[nH]5)C=CC3=C4)cc21 [Amitriptyline-b-2-NB590] | – | – | 1.00 | – | – | 1.03 | – | – | – | – | – | 1.19 | 1.00 | 1.00 | 0.98

Source: article PMC8151276, “An Integrated Approach toward NanoBRET Tracers for Analysis of GPCR Ligand Engagement” (Molecules, 2021)
